{
  "source": "patent US20190336496A1",
  "about": "“SELECTIVE BCL-2 INHIBITORS IN COMBINATION WITH AN ANTI-PD-1 OR AN ANTI-PD-L1 ANTIBODY FOR THE TREATMENT OF CANCERS” (AbbVie Inc., priority 2018, published 2019)",
  "key": {"[1]": {"test_system": "CT26 tumors", "test": "CT26 mouse colon carcinoma syngeneic model", "type": "in vivo", "settings": "CT26 in BALB/c mice; venetoclax 50 mg/kg/day orally 14 days; antibody 10 mg/kg IP every 4 days, 3 times; day 18", "description": "BALB/c, C57BL/6, CB6F1 (C57BL/6 bred with BALB/c) and SCID mice were obtained from Charles River (Wilmington, Mass.).\nEMT6, mouse mammary carcinoma and CT26, mouse colon carcinoma, cell lines were obtained from ATCC (Manassas, Va.).\nCompound (I),venetoclax, was formulated in 10% ethanol+30% PEG 400+60% Phosal® 50PG. Venetoclax was administered orally once a day for 14 days at 50 mg/kg/day.\n1×10^5 CT26, EMT6 or MC38 cells were subcutaneously injected with Matrigel into the flanks of BALB/c, CB6F1 or C57BL/6 mice, respectively. Seven days later, mice were randomized to treatment groups of vehicle, venetoclax, anti-PD-1/PD-L1 or the combination of venetoclax and anti-PD-1/PD-L1. Tumor volume was determined via measurements of the length (L) and width (W) of the tumor with electronic calipers and the volume was calculated according to the following equation: V=L×W2/2 using Study Director Version 2.1.11 (Studylog Systems Inc., South San Francisco). Complete response (CR) was defined as reduction in tumor volume to ≤25 mm^3 over at least 3 successive measurements."}, "[2]": {"test_system": "T-cell subsets in peripheral blood", "test": "T-cell subsets in peripheral blood of healthy volunteers", "type": "in vivo, human", "design": "key: ↑: increase; ↓: decrease; ≈: no change", "settings": "one dose of 100 mg (or dose-equivalent); one day pre- vs seven days post-treatment; per subject", "procedure": "In a clinical study sponsored by AbbVie Inc. healthy volunteers were administered with one dose of 100 mg of Compound (I) (venetoclax) or a dose-equivalent of Compound (IV) in a solid formulation to deliver 100 mg of Compound (I). T-cell subsets in peripheral blood were measured one day pre- and seven days post-treatment by flow cytometry. In most of the tested subjects the fraction of CD4+ and CD8+ T effector memory and terminally differentiated effector memory cells increased, the proportion of CD8+ naïve T-cells has remained unchanged or decreased, and the proportion of CD4+ and CD8+ central memory T cells has decreased following treatment with either agent (Table 7 and FIG. 13)."}, "[3]": {"test_system": "NCI-H211", "test": "Venetoclax cell killing (CellTiter-Glo)", "type": "cell-based, human", "procedure": "(§1) Solid tumor cell lines were obtained from American Type Culture Collection (ATCC, Manassas, Va.) or the National Cancer Institute (NCI) and cultured in humidified incubators at 37° C. (5% CO2) in appropriate media (specified by supplier) supplemented with 10% fetal bovine serum (FBS) or 10% human serum (HS). 24 hours after plating into 96-well or 384-well tissue culture plates, venetoclax was added to cells at various concentrations (typically 0.010 to 10 μM in half-log increments) to perform concentration-response assessments of cell killing. After 1 to 5 days of culture in the presence of venetoclax, cell viability was assessed using CellTiter-Glo® reagent (Promega). IC50 values were determined by non-linear regression analysis of the concentration response data (Table 5 and Table 6)."}, "[4]": {"test_system": "LS411N", "test": "Venetoclax cell killing (CellTiter-Glo)", "type": "cell-based", "settings": "Homo sapiens, LS-411N, 120 h; Colorectal; 10% FBS; 5 days", "procedure": "as §1"}, "[5]": {"test_system": "MDA-MB-468", "test": "Venetoclax cell killing (CellTiter-Glo)", "type": "cell-based", "settings": "Homo sapiens, MDA-MB-468, 48 h; Breast Cancer; 10% FBS; 2 days", "procedure": "as §1"}, "[6]": {"test_system": "FaDu", "test": "Venetoclax cell killing (CellTiter-Glo)", "type": "cell-based", "settings": "Homo sapiens, 120 h, Hypopharyngeal, 10% FBS, 5 days", "procedure": "as §1"}, "[7]": {"test_system": "NCI-H1417", "test": "Venetoclax cell killing (CellTiter-Glo)", "type": "cell-based", "settings": "Homo sapiens, NCI-H1417, 48 h; Lung; 10% HS; 2 days", "procedure": "as §1"}, "[8]": {"test_system": "NCI-H1048", "test": "Venetoclax cell killing (CellTiter-Glo)", "type": "cell-based", "settings": "Homo sapiens, NCI-H1048, 72 h; Lung; 10% FBS; 3 days", "procedure": "as §1"}, "[9]": {"test_system": "Calu-6", "test": "Venetoclax cell killing (CellTiter-Glo)", "type": "cell-based", "settings": "Homo sapiens, Calu-6, 72 h; Lung; 10% FBS; 3 days", "procedure": "as §1"}, "[10]": {"test_system": "NCI-H187", "test": "Venetoclax cell killing (CellTiter-Glo)", "type": "cell-based", "settings": "Homo sapiens, NCI-H187, 48 h; Lung; 10% HS; 2 days", "procedure": "as §1"}, "[11]": {"test_system": "SW620", "test": "Venetoclax cell killing (CellTiter-Glo)", "type": "cell-based", "settings": "Homo sapiens, SW-620, 120 h; Colorectal; 10% FBS; 5 days", "procedure": "as §1"}, "[12]": {"test_system": "NCI-H1836", "test": "Venetoclax cell killing (CellTiter-Glo)", "type": "cell-based", "settings": "Homo sapiens, NCI-H1836, 48 h; Lung; 10% HS; 2 days", "procedure": "as §1"}, "[13]": {"test_system": "SJSA-1", "test": "Venetoclax cell killing (CellTiter-Glo)", "type": "cell-based", "settings": "Homo sapiens, SJSA-1, 120 h; Osteosarcoma; 10% FBS; 5 days", "procedure": "as §1"}, "[14]": {"test_system": "NCI-H1963", "test": "Venetoclax cell killing (CellTiter-Glo)", "type": "cell-based", "settings": "Homo sapiens, NCI-H1963, 24 h; Lung; 10% FBS; 1 day", "procedure": "as §1"}, "[15]": {"test_system": "DLD-1", "test": "Venetoclax cell killing (CellTiter-Glo)", "type": "cell-based", "settings": "Homo sapiens, DLD-1, 120 h; Colorectal; 10% FBS; 5 days", "procedure": "as §1"}, "[16]": {"test_system": "NCI-H2009", "test": "Venetoclax cell killing (CellTiter-Glo)", "type": "cell-based", "settings": "Homo sapiens, NCI-H2009, 72 h; Lung; 10% FBS; 3 days", "procedure": "as §1"}, "[17]": {"test_system": "SKBR3", "test": "Venetoclax cell killing (CellTiter-Glo)", "type": "cell-based", "settings": "Homo sapiens, SK-BR-3, 72 h; Breast Cancer; 10% FBS; 3 days", "procedure": "as §1"}, "[18]": {"test_system": "HCT-116", "test": "Venetoclax cell killing (CellTiter-Glo)", "type": "cell-based", "settings": "Homo sapiens, HCT-116, 120 h; Colorectal; 10% FBS; 5 days", "procedure": "as §1"}, "[19]": {"test_system": "NCI-H524", "test": "Venetoclax cell killing (CellTiter-Glo)", "type": "cell-based", "settings": "Homo sapiens, NCI-H524, 24 h; Lung; 10% FBS; 1 day", "procedure": "as §1"}, "[20]": {"test_system": "C32", "test": "Venetoclax cell killing (CellTiter-Glo)", "type": "cell-based", "settings": "Homo sapiens, C32, 120 h; Melanoma; 10% FBS; 5 days", "procedure": "as §1"}, "[21]": {"test_system": "Hs 695T", "test": "Venetoclax cell killing (CellTiter-Glo)", "type": "cell-based", "settings": "Homo sapiens, 120 h, Melanoma, 10% FBS, 5 days", "procedure": "as §1"}},
  "note": "Several values for one entry are separate records, joined by “and”; a condition that tells them apart may be missing. Equal entries are not always repeated.",
  "data": [
    {"smiles": "CC1(C)CCC(CN2CCN(c3ccc(C(=O)NS(=O)(=O)c4ccc(NCC5CCOCC5)c([N+](=O)[O-])c4)c(Oc4cnc5[nH]ccc5c4)c3)CC2)=C(c2ccc(Cl)cc2)C1", "note": "[Compound (I), venetoclax]", "values": [
      {"measurement": "tumor growth inhibition (TGI)", "setting": "[1]", "result": 16, "unit": "%"},
      {"measurement": "CD4+ T-Cells TCM", "setting": "[2]", "result": "↓"},
      {"measurement": "CD4+ T-Cells TEM", "setting": "[2]", "result": "↑"},
      {"measurement": "CD4+ T-Cells TEMRA", "setting": "[2]", "result": "↑ and ≈ (2×)"},
      {"measurement": "CD4+ T-Cells TN", "setting": "[2]", "result": "≈ and ↑ and ↓"},
      {"measurement": "CD8+ T-Cells TCM", "setting": "[2]", "result": "↓"},
      {"measurement": "CD8+ T-Cells TEM", "setting": "[2]", "result": "↑"},
      {"measurement": "CD8+ T-Cells TEMRA", "setting": "[2]", "result": "↑ (2×) and ≈"},
      {"measurement": "CD8+ T-Cells TN", "setting": "[2]", "result": "↓ and ≈ (2×)"},
      {"measurement": "IC50", "setting": "[3]; Homo sapiens, NCI-H211, 48 h, Lung, 10% HS, 2 days", "result": 0.03, "unit": "µM"},
      {"measurement": "sensitivity at clinically relevant concentrations", "setting": "[3]; only line of Tables 5 and 6", "result": "showed sensitivity"},
      {"measurement": "IC50", "setting": "[4]", "result": 5.1, "unit": "µM"},
      {"measurement": "IC50", "setting": "[5]", "result": "> 10", "unit": "µM"},
      {"measurement": "IC50", "setting": "[6]", "result": "> 10", "unit": "µM"},
      {"measurement": "IC50", "setting": "[7]", "result": "> 5", "unit": "µM"},
      {"measurement": "IC50", "setting": "[8]", "result": "> 10", "unit": "µM"},
      {"measurement": "IC50", "setting": "[9]", "result": "> 10", "unit": "µM"},
      {"measurement": "IC50", "setting": "[10]", "result": 3.04, "unit": "µM"},
      {"measurement": "IC50", "setting": "[11]", "result": "> 10", "unit": "µM"},
      {"measurement": "IC50", "setting": "[12]", "result": "> 5", "unit": "µM"},
      {"measurement": "IC50", "setting": "[13]", "result": "> 10", "unit": "µM"},
      {"measurement": "IC50", "setting": "[14]", "result": 4.59, "unit": "µM"},
      {"measurement": "IC50", "setting": "[15]", "result": "> 10", "unit": "µM"},
      {"measurement": "IC50", "setting": "[16]", "result": 4.11, "unit": "µM"},
      {"measurement": "IC50", "setting": "[17]", "result": 4.42, "unit": "µM"},
      {"measurement": "IC50", "setting": "[18]", "result": "> 10", "unit": "µM"},
      {"measurement": "IC50", "setting": "[19]", "result": "> 10", "unit": "µM"},
      {"measurement": "IC50", "setting": "[20]", "result": "> 10", "unit": "µM"},
      {"measurement": "IC50", "setting": "[21]", "result": "> 10", "unit": "µM"}
    ]}
  ]
}
